According to patent US20250100977A1, “MERCAPTOPYRIMIDINE COMPOUNDS THAT INHIBIT NONHOMOLOGOUS END JOINING AND METHODS THEREOF” (INDIAN INSTITUTE OF SCIENCE, priority 2021, published 2025):
Values joined by “and” are separate entries in the source; they are usually repeats but may differ in a detail not shown here. Identical values can stand only once.

Columns and labels:
[1] = target: T1, Ligase III/XRCC1 (Homo sapiens, UniProt P49916); assay: Inhibition of end joining by purified Ligase III/XRCC1; type: biochemical; details: 50, 100, 200, 500, 1000 μM
T1 construct: made in house
T1 sequence (P49916 43-1009): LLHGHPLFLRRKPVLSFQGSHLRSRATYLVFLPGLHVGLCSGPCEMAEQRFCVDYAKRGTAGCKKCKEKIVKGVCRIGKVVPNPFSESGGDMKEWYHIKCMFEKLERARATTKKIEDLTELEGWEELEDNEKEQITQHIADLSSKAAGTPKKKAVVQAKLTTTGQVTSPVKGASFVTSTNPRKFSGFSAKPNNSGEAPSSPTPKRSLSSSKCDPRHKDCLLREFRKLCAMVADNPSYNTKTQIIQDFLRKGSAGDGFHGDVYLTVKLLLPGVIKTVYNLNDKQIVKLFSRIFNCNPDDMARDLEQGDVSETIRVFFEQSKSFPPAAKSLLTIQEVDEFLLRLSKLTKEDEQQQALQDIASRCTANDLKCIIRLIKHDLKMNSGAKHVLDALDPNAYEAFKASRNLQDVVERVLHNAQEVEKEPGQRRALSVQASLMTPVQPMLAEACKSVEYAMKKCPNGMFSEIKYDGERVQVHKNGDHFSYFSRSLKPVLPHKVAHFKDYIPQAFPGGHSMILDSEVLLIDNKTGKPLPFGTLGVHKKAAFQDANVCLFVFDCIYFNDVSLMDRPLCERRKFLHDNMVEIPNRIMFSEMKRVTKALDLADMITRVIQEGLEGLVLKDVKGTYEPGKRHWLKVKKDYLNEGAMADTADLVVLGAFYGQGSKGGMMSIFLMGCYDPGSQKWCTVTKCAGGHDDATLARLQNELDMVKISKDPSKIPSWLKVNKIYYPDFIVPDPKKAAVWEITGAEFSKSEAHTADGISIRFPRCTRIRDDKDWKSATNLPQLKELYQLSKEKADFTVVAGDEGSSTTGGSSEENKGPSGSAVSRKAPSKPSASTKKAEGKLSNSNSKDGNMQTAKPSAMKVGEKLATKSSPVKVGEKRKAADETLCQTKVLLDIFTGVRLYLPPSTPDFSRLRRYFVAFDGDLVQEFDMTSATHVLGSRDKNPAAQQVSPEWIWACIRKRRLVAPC
T1 sequence (P18887 whole entry partner): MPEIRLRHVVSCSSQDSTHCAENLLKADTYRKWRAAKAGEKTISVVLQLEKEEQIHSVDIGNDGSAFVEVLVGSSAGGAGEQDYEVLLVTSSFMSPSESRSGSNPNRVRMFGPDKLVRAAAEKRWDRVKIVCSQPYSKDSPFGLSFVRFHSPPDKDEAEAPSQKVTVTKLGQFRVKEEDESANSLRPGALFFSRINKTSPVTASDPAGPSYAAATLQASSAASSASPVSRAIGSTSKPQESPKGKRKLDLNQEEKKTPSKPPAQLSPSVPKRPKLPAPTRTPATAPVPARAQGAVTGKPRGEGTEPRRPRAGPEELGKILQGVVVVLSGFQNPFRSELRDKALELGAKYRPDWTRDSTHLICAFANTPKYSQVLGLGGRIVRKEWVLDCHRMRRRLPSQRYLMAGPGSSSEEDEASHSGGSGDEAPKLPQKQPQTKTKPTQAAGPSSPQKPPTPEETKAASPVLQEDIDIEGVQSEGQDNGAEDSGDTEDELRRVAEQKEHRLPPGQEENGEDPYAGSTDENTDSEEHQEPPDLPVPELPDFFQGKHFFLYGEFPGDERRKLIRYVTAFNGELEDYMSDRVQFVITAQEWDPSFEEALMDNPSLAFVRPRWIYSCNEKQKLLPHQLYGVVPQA
Description: (§1) The compounds of the present invention were analysed for inhibition of end joining with purified Ligase I (FIG. 3A) and Ligase III/XRCC1 (FIG. 3F). The compounds were incubated with either purified Ligase I (FIG. 3B-E) or with Ligase III/XRCC1 (FIGS. 3G-J) in suitable NHEJ buffer at 25° C. for 30 min, followed by addition of radiolabeled DNA, and further incubation for 1 h at 25° C. Products were purified using phenol: chloroform, and run on denaturing PAGE.
(§2) Effects of these compounds on NHEJ and Ligase IV mediated joining were evaluated (FIG. 4A-K). The reactions were terminated by EDTA (10 mM), products were purified using phenol/chloroform, precipitated with chilled ethanol and glycogen, and resolved on 8% denaturing PAGE. The gel was dried, exposed, and signal was detected using phosphor Imager FLA9000 (Fuji, Japan), and quantified in MultiGauge software expressed as Photo Stimulated Luminescence Units (PSLU). Inhibition of end joining was reported at 200 μM and 100 μM, respectively for SCR116 and SCR132 (FIGS. 4A, B, C and D), with >50% inhibition at 200 and 100 μM concentrations, respectively. […] FIG. 4K depict the purification profile of Ligase IV and XRCC4. […]

[2] = system: U118; assay: Cytotoxicity in U118; type: cell-based; details: Table 2; read-out: IC50 in cancer cell lines, U118
Description: (§3) Ligase IV specificity of the compounds of the present invention inside the cells were also determined using Ligase IV knock out (KO) cell line N114 compared to the wild type Nalm6 (Table 2, FIGS. 5C, D, E and F). […] Table 1 showing IC50 of SCR7 derivatives in cancer cell lines Nalm6 and HeLa. IC50 was calculated using GraphPad Prism software from the percentage of viable cells following treatment with the compounds at 48 h. Table 2 showing IC50 of SCR116 and SCR132 in a panel of 16 cancer cell lines.

[3] = system: L1210; assay: Cytotoxicity in L1210; type: cell-based; details: Mus musculus, L1210; Table 2; read-out: IC50 in cancer cell lines, L1210
Description: as §3

[4] = system: V(D)J recombination in Nalm6 (pGG49); assay: V(D)J recombination in Nalm6 using pGG49; type: cell-based; details: for Fold reduction in recombination efficiency: vs vehicle control
Description: Evaluation of efficiency of V(D)J recombination following treatment with SCR116 and SCR132 was carried out as depicted in FIGS. 6(A-C). Tables 4 and 5 summarize the effect of SCR116 (1 and 2 μM) and SCR132 (0.5 and 1 μM) on V(D)J recombination in Nalm6 using pGG49 and pGG51, respectively.

[5] = system: SCC084 derived xenograft; assay: Mouse xenograft model, SCC084; type: in vivo; details: oral cancer SCC084 xenograft; 8 oral doses
[6] = system: MCF7; assay: Cytotoxicity in MCF7; type: cell-based; details: Homo sapiens, MCF7; Table 2; read-out: IC50 in cancer cell lines, MCF7
Description: as §3

[7] = system: cancer cells; assay: Cytotoxicity in combination with radiation or chemotherapeutic agents; type: cell-based; details: combined with 0.5 and 1 Gy γ-radiation, or 5-FU and etoposide
Description: FIG. 7(A-F) depicts evaluation of generation of double-strand breaks inside cells treated with compounds SCR116 and SCR132 alone or in combination, A. Immunofluorescence with 53BP1 in HeLa cells treated with increasing concentration of SCR116 (2 and 5 μM) and SCR132 (1 and 2 μM). Nucleus is stained in red using propidium iodide, while green signal represents 53BP1 foci (FITC). B. Quantification of 53BP1 foci inside HeLa cells treated with SCR116 and SCR132 for 24 h, as denoted using scatter plot. Significance was calculated using ANOVA in GraphPad Prism software (ns, not significant; *p<0.05, **p<0.005, ***p<0.0001). C-D. Bar graphs showing percentage of viable cells following treatment with the compounds alone, or in presence of γ-radiation (0.5 Gy) at 24 (C) and 48 h (D). 2 and 4 μM SCR116, and 1 and 2 μM SCR132 were used. E. Bar graph showing percentage of viable cells following treatment with SCR116 (0.375 μM) or SCR132 (0.125 μM) alone, or in presence of 0.25 μM etoposide at 48 h. F. Bar graph showing percentage of viable cells following treatment with SCR116 (0.375 μM) or SCR132 (0.125 μM) alone, or in presence of 0.375 μM 5-FU at 48 h, in accordance with an implementation of the present disclosure.

[8] = target: T2, Ligase I (Homo sapiens, UniProt P18858); assay: Inhibition of end joining by purified Ligase I; type: biochemical; details: up to highest concentration of 1000 μM
T2 construct: made in house; host or cells: bacteria
T2 sequence (P18858 whole entry): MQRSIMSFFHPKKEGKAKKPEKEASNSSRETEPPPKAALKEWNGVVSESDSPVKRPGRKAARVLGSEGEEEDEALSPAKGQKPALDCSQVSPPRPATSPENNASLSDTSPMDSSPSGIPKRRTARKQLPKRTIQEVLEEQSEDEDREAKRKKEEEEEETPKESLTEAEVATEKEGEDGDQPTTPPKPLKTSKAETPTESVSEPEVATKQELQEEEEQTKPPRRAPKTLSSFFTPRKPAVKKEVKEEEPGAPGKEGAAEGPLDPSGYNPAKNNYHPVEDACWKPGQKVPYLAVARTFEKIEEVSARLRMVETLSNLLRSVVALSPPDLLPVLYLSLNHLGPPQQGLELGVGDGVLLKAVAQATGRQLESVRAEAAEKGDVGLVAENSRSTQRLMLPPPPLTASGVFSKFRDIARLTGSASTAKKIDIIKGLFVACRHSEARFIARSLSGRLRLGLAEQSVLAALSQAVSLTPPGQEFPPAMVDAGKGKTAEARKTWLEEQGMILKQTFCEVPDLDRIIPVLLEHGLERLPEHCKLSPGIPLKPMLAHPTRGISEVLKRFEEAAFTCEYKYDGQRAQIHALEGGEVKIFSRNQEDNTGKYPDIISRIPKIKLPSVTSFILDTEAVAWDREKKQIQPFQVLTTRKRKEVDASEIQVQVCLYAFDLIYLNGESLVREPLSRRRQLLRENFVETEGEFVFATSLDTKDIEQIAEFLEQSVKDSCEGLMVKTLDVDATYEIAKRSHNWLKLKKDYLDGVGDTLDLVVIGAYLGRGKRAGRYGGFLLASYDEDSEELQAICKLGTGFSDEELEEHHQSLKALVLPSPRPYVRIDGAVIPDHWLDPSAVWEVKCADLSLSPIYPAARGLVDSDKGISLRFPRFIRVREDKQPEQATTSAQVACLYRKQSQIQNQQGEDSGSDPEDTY
Description: as §1, §2

[9] = system: 53BP1 foci in Nalm6; assay: 53BP1 foci in Nalm6 cells; type: cell-based; details: 24 h, SCR116 2, 5 μM, SCR132 1, 2 μM
Description: FIG. 8(A-B) depicts accumulation of DSBs inside cells following treatment with the compounds. A. Representative images for HeLa cells subjected to neutral comet assay following treatment with SCR116 and SCR132 for 24 h. […] FIG. 8C, D are representative images for Nalm6 cells (C) and N114 cells (D) following treatment with SCR116 and SCR132 for 24 h. and FIG. 8E, F are scatter plot depicting quantification of percentage of 53BP1 foci treated with SCR116 (2, 5 μM) and SCR132 (1, 2 μM) in Nalm6 and N114.

[10] = system: Ligase IV knock out (KO) cell line N114; assay: Cytotoxicity in Ligase IV knock out cell line N114; type: cell-based; details: Table 2, 48 h, read-out: IC50 in cancer cell lines, N114
Description: as §3

[11] = system: Molt4; assay: Cytotoxicity in Molt4; type: cell-based, human; details: Homo sapiens, MOLT-4; Table 2; read-out: IC50 in cancer cell lines, Molt4
Description: as §3

SMILES	Inhibition of end joining with Ligase III/XRCC1 [1]	IC50 [2] [µM]	IC50 [3] [nM]	Recombination efficiency (CA/A) ×100 ([4]; 1 μM)	Fold reduction in recombination efficiency ([4]; 1 μM) [fold]	Recombination efficiency (CA/A) ×100 ([4]; 2 μM)	Fold reduction in recombination efficiency ([4]; 2 μM, listed as SCR116)	Tumor volume [5]	IC50 [6] [µM]	Cytotoxicity in combination [7]	Inhibition of end joining with Ligase I [8]	53BP1 foci [9]	IC50 [10] [µM]	IC50 [11] [µM]	Recombination efficiency (CA/A) ×100 ([4]; 0.5 μM)	Fold reduction in recombination efficiency ([4]; 0.5 μM) [fold]
Nc1nc(S)nc(O)c1/N=C/c1ccc([N+](=O)[O-])s1 [Compound 16, (E)-6-amino-2-mercapto-5-(((5-nitrothiophen-2-yl)methylene)amino)pyrimidin-4-ol]	inhibited end joining at highest concentrations of 500 and 1000 μM	5.6	3750	0.050	5.2	0.013	20 fold and 20.0 fold	significant reduction in tumor volume	10	Increased cytotoxicity	no inhibition	significant increase in 53BP1 foci	14.1	4.89	–	–
Nc1nc(S)nc(O)c1/N=C/c1sc(Cl)nc1Cl [Compound 32, (E)-6-amino-5-(((2,4-dichlorothiazol-5-yl)methylene)amino)-2-mercaptopyrimidin-4-ol]	no significant inhibition	4.1	879	0.009	31.1	–	–	significant reduction in tumor volume	5	Increased cytotoxicity	no inhibition	significant increase in 53BP1 foci	10.1	1.88	0.030	9.3
